How the values were obtained:
Assay type in all cases: functional, organism-based
Conditions in all cases: Hippocampus
[1] = species: Rattus norvegicus; assay: Effect on the uptake amount of [3H]choline in the hippocampal synaptosomes of AF64A-treated rats at 10e-5 M
[2] = species: Rattus norvegicus; assay: Effect on the uptake amount of [3H]choline in the hippocampal synaptosomes of AF64A-treated rats at 10e-7 M
[3] = species: Rattus norvegicus; assay: Effect on the uptake amount of [3H]choline in the hippocampal synaptosomes of AF64A-treated rats at 10e-6 M

| SMILES | HACU improvement [1] [%] | HACU improvement [2] [%] | HACU improvement [3] [%] |
| --- | --- | --- | --- |
| O=C(CN1CCCC1=O)Nc1c2c(nc3ccccc13)CCCC2 | 14 | 15 | 17 |
| CCCC(=O)Nc1c2c(nc3ccc(F)cc13)CCCC2 | 7 | 2 | -5 |
| Cc1oc2nc3c(c(NC(=O)CN4CC(=O)NC4=O)c2c1C)CCCC3 | 16 | 5 | 12 |
| Cc1oc2nc3c(c(NC(=O)CN4CCCC4=O)c2c1C)CCCC3 | 64 | 55 | 72 |
| CCCC(=O)Nc1c2c(nc3ccccc13)CCN(Cc1ccccc1)C2 | 21 | 10 | 11 |
| CCCC(=O)Nc1c2c(nc3ccccc13)CCC(c1ccccc1)C2 (stereo not drawn) | -6 | -1 | -7 |
| CCCC(=O)Nc1c2c(nc3ccccc13)CCN(S(=O)(=O)c1ccccc1)C2 | 5 | 26 | 10 |
| CCCC(=O)Nc1c2c(nc3cccc(C)c13)CCCC2 | 10 | -2 | -4 |
| CCCC(=O)Nc1c2c(nc3ccccc13)C1CCN2CC1 | 10 | 7 | 7 |
| CCCC(=O)Nc1c2c(nc3cccc(F)c13)CCCC2 | 3 | 9 | 2 |
| CCCC(=O)Nc1c2c(nc3oc(C)nc13)CCCC2 | 18 | 4 | 2 |
| CCCC(=O)Nc1c2c(nc3ccsc13)CCCC2 | 15 | 7 | 4 |
| CCCC(=O)Nc1c2c(nc3oc(C)c(C)c13)CCCC2 | 38 | 13 | 20 |
| CCCC(=O)Nc1c2c(nc3ccccc13)CCC(C)(C)C2 | 1 | -11 | 3 |
| CCCC(=O)Nc1c2c(nc3ncccc13)CCCC2 | 13 | 15 | 10 |
| CCCC(=O)Nc1c2c(nc3sc(C)c(C)c13)CCCC2 | 20 | 4 | 11 |

| SMILES | HACU improvement [1] [%] | HACU improvement [2] [%] | HACU improvement [3] [%] |
| --- | --- | --- | --- |
| CCCC(=O)Nc1c2c(nc3ccccc13)CCC1(CC1)C2 | 12 | 3 | 19 |
| CCCC(=O)Nc1c2c(nc3ccccc13)C=CCC2 | -7 | 14 | 8 |
| CCCC(=O)Nc1c2c(nc3ccccc13)CCN(C(=O)c1ccccc1)C2 | -7 | 7 | 0 |
| CCCC(=O)Nc1c2c(nc3ccccc13)CCC(O)C2 (stereo not drawn) | 10 | 13 | 16 |
| CCCC(=O)Nc1c2c(nc3cc(F)ccc13)CCCC2 | -15 | -1 | 3 |
| CCCC(=O)Nc1c2c(nc3scc(C)c13)CCCC2 | 1 | 7 | 3 |
| CCCC(=O)Nc1c2c(nc3ccccc13)CCC(C)C2 (stereo not drawn) | 6 | -6 | -16 |
| CNCC(=O)Nc1c2c(nc3oc(C)c(C)c13)CCCC2 | 3 | 14 | 10 |
| CCCC(=O)Nc1c2c(nc3ccccc13)C(C)CCC2 (stereo not drawn) | 16 | 10 | 17 |
| Cc1oc2nc3c(c(NC(=O)Cn4ccnc4)c2c1C)CCCC3 | 3 | 5 | 4 |
| CCCC(=O)Nc1c2c(nc3sccc13)CCCC2 | 12 | 1 | 1 |
| CCCC(=O)Nc1c2c(nc3ccccc13)C1CCC2CC1 | -3 | 5 | -6 |
| CCCC(=O)Nc1c2c(nc3ccccc13)CCC(=O)C2 | 14 | 14 | 14 |
| CCCC(=O)Nc1c2c(nc3ccccc13)CCN(C)C2 | 19 | 13 | 9 |
| CCCC(=O)Nc1c2c(nc3ccccc13)CCCC2 | 28 | 13 | 24 |

— ChEMBL document CHEMBL1150023, “Design and syntheses of 4-acylaminopyridine derivatives: Novel high affinity choline uptake enhancers II” (Bioorg Med Chem Lett, 1995)
